How the values were obtained:
[1] = biological target: Tyrosine-protein kinase Lck (Homo sapiens, UniProt P06239); assay: Inhibition of Lck (unknown origin) using [gamma-33P]ATP after 30 mins by radiometric assay
[2] = Apparent permeability from apical to basolateral side in human Caco2 cells after 2 hrs by LC-MS/MS analysis; type: ADME, cell-based; settings: Caco-2
[3] = biological target: T1, Ephrin type-B receptor 3 (Homo sapiens) (UniProt P54753); assay: Inhibition of human Eph-B3 using [gamma-33P]ATP assessed as residual activity at 3 uM after 30 mins by radiometric assay
T1 sequence (whole entry): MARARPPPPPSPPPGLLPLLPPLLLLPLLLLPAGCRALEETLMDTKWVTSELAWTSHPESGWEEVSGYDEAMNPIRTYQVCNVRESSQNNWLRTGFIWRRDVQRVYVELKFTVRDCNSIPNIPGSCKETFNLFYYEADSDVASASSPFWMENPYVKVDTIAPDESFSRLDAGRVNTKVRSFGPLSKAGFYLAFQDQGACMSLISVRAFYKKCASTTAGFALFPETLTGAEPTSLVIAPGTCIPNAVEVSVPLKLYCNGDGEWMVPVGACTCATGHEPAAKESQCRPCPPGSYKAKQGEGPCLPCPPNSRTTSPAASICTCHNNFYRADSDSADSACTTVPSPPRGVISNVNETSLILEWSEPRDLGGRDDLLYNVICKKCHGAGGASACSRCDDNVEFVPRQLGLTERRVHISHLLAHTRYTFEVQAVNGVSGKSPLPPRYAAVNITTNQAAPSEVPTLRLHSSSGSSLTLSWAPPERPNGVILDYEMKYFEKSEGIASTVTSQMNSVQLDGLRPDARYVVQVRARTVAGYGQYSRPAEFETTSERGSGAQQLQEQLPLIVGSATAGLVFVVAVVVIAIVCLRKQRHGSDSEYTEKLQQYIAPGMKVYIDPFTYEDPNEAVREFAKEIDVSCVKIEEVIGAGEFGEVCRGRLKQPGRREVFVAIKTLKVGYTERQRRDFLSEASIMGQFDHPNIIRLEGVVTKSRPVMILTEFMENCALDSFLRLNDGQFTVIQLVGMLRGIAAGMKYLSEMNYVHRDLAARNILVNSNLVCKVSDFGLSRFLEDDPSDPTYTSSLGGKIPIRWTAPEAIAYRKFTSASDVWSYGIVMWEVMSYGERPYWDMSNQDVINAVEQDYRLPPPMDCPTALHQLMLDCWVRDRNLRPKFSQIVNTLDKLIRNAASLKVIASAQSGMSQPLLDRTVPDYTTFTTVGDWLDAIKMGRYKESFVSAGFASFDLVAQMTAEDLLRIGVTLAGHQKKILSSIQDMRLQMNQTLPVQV

[4] = Cytotoxicity against human LXFA 983L cells after 4 days by propidium iodide staining; settings: 96 h
[5] = Cytotoxicity against human CXF 1103L cells after 4 days by propidium iodide staining; settings: 96 h
in vitro = settings: human, Caco-2
Description: Efflux ratio of apparent permeability from basolateral to apical side to apical to basolateral side in human Caco2 cells

Ephrin type-B receptor 4 [6] = biological target: T2, Ephrin type-B receptor 4 (Homo sapiens, UniProt P54760); assay: Inhibition of EphB4 (unknown origin) transfected in CHO cells using Z'-LYTE TYR-1 peptide as substrate after 2 hrs by FRET assay; type: cell-based
T2 sequence (P54760 whole entry): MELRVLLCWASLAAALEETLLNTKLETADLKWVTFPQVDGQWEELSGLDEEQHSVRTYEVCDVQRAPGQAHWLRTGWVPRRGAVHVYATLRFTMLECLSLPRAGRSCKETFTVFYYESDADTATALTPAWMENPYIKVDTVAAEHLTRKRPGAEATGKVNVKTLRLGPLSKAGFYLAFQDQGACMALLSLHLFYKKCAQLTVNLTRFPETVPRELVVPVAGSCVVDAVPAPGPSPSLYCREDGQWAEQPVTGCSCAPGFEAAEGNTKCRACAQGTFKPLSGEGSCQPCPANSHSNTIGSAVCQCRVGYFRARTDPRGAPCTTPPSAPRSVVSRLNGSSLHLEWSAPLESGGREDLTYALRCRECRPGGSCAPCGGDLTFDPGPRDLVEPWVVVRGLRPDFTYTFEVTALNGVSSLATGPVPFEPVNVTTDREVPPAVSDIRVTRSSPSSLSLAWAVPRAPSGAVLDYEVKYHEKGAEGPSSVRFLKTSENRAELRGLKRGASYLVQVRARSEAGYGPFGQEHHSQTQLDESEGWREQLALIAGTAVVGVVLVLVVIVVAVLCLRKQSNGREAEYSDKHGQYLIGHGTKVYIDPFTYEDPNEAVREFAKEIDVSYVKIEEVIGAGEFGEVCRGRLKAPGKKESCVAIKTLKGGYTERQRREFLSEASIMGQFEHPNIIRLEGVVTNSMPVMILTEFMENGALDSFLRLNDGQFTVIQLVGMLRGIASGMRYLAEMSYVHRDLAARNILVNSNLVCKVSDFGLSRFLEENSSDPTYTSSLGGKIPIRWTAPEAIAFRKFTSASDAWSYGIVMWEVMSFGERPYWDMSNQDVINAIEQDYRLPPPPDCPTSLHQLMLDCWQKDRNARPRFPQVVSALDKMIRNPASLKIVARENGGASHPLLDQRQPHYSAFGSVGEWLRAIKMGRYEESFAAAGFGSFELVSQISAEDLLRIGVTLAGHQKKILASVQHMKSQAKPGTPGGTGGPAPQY

[7] = Cytotoxicity against human PAXF 1657L cells after 4 days by propidium iodide staining; settings: 96 h
Ephrin type-B receptor 4 [8] = biological target: T2, Ephrin type-B receptor 4
Description: Inhibition of human myc-tagged full length EphB4 expressed in MEF cells assessed as inhibition of ephrinB2-Fc-induced autophosphorylation incubated for 90 mins prior to ephrinB2-Fc-induction measured after 2 hrs by sandwich ELISA

[9] = biological target: Ephrin type-A receptor 2 (Homo sapiens) (UniProt P29317); assay: Inhibition of human Eph-A2 using [gamma-33P]ATP assessed as residual activity at 3 uM after 30 mins by radiometric assay
[10] = biological target: Tyrosine-protein kinase Yes (Homo sapiens, UniProt P07947); assay: Inhibition of human Yes1 using [gamma-33P]ATP assessed as residual activity at 3 uM after 30 mins by radiometric assay
[11] = biological target: Receptor-interacting serine/threonine-protein kinase 2 (Homo sapiens) (UniProt O43353); assay: Inhibition of human RIPK2 using [gamma-33P]ATP assessed as residual activity at 3 uM after 30 mins by radiometric assay
[12] = Cytotoxicity against human RXF 393NL cells after 4 days by propidium iodide staining; settings: 96 h
Ephrin type-B receptor 4 [13] = biological target: T2, Ephrin type-B receptor 4; remark: listed apart in the source
Description: Inhibition of EphB4 (unknown origin) transfected in CHO cells using [gamma-33P]ATP by radiometric assay

Tyrosine-protein kinase Lck, sequence (P06239 whole entry): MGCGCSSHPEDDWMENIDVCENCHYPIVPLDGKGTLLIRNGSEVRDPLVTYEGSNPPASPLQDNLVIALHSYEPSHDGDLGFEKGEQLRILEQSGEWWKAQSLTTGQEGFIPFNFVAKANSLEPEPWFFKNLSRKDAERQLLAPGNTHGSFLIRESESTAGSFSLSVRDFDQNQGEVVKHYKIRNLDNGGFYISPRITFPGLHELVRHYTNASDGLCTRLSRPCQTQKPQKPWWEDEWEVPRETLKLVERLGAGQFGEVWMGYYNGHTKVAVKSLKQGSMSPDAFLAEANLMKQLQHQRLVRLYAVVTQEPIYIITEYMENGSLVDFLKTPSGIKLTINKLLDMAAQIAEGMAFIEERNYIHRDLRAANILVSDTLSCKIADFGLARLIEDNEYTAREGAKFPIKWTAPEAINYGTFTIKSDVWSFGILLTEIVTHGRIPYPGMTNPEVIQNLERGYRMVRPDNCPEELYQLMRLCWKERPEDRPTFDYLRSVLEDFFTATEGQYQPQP
Receptor-interacting serine/threonine-protein kinase 2 (Homo sapiens), sequence (O43353 whole entry): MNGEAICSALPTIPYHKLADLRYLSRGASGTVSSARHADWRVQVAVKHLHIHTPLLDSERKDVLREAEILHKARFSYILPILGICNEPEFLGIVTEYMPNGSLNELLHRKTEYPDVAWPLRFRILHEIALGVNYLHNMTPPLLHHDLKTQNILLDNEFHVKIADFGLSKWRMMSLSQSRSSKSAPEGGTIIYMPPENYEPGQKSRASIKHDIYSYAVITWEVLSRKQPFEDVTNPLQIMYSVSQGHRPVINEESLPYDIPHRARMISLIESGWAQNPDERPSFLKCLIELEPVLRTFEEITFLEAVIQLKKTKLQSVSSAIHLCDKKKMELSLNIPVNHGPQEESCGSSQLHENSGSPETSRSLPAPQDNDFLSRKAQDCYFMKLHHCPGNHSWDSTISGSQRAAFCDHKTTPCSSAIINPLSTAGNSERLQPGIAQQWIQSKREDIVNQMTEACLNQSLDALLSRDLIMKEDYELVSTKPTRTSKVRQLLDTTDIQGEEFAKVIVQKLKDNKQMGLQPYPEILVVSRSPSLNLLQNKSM
Ephrin type-A receptor 2 (Homo sapiens), sequence (P29317 whole entry): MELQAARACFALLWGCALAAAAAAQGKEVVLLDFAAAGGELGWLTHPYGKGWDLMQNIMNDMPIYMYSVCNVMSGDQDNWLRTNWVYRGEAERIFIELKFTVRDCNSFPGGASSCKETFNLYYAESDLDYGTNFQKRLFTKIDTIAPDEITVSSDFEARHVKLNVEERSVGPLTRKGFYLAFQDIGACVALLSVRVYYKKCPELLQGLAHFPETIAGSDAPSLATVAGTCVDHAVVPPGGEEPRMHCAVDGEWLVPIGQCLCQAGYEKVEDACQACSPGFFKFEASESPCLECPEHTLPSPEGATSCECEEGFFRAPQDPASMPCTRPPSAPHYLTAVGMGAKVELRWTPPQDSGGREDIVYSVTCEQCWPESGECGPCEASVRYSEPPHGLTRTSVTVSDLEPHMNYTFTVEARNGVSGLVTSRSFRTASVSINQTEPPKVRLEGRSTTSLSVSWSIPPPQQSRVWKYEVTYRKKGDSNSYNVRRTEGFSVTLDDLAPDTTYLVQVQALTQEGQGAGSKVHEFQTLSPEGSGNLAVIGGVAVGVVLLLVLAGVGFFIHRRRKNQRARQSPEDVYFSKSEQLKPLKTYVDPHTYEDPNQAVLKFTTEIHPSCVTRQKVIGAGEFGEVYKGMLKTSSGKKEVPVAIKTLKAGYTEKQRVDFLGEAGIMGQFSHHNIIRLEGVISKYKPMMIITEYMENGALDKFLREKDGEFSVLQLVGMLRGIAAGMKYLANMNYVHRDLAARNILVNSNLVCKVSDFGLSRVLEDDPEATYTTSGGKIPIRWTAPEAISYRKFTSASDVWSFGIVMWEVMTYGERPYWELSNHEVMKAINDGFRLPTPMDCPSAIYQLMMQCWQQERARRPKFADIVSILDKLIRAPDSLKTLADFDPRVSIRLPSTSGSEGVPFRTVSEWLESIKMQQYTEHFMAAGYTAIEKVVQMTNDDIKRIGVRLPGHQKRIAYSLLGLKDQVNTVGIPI
Tyrosine-protein kinase Yes, sequence (P07947 2-543 limits assumed): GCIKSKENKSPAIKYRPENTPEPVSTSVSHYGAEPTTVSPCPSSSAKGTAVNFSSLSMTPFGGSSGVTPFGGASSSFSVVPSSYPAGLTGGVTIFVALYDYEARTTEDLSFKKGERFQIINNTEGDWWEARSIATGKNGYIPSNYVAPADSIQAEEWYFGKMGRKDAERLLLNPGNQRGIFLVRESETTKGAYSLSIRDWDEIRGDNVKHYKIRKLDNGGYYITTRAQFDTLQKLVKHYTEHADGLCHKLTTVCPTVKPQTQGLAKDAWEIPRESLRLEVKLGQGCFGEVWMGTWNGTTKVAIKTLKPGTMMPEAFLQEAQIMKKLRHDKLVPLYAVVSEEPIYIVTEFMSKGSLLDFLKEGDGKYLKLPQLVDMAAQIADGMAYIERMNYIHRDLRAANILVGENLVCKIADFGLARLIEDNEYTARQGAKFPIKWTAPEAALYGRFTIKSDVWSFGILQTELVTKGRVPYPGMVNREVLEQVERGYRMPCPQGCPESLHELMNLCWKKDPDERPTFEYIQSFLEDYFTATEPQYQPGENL

IC50 [1]: 0.493 µM
Papp A→B at 2 h [2]: 427 nm/s
Activity [3]: 13%
efflux ratio (in vitro): 0.7
IC50 (Ephrin type-B receptor 4 [6]): 0.056 µM
IC50 (Ephrin type-B receptor 4 [8]): 0.05 µM
Activity [9]: 6%
Activity [10]: 14%
Activity [11]: 12%
IC50 (Ephrin type-B receptor 4 [13]): 0.082 µM
Structure (SMILES): CCCCn1c(-c2ccccc2C)cn2c3c(=O)[nH]c(=O)n(C)c3nc12
IC50 [4]: 5.45 µM
IC50 [5]: 4.61 µM
IC50 [7]: 8.1 µM
IC50 [12]: 7.6 µM
